“Also recorded” adds a separate entry of the source. Read-outs that look alike come from different tables or passages of the source.

The test system of data set [1] is 4EBP1 T37/T46 phosphorylation (mTORC1). As to the kind of experiment: AlphaLISA/MSD p4EBP1 T37/T46 in MDA-MB-468 cells. The class given is cell-based. Background: In Alpha technology, singlet oxygen from a donor bead excites a nearby acceptor bead.
Data set [2] concerns AKT S473 phosphorylation (mTORC2). As to the kind of experiment: AlphaLISA/MSD pAKT S473 in MDA-MB-468 cells. The class given is cell-based.
The subject of data set [3] is mTORC1 signaling (p4EBP1 T37/T46). As to the kind of experiment: p4EBP1 T37/T46 in parental and FKBP12 knockout NCI-H358 cells. It is filed as cell-based.
In a further data set the test system is p4EBP1 T37/T46. Description: FK506 competition, p4EBP1 T37/T46 in MDA-MB-468 cells. It is filed as cell-based.
The subject of a further data set is MCF-7 cells. Description: Cell viability. It is filed as cell-based. To be noted: MCF-7, 72 hours.
The subject of data set [4] is 4EBP1/2 WT and 4EBP1/2 DKO MEFs. As to the kind of experiment: Cell growth of E1A/Ras-transformed 4EBP1/2 WT and DKO MEFs. It is filed as cell-based, mouse. To be noted: 72 hours.
A short description of data set [5]: Two-day glucose tolerance test. The class given is in vivo. Particulars: mice, one hour after inhibitor administration.
The nature of data set [6]: MCF-7 subcutaneous xenograft: body weight. Particulars: MCF-7 xenograft mice; bi-steric inhibitors ip once weekly, MLN0128 po daily.
Another data set concerns the target PIK3CD (Homo sapiens, UniProt O00329). As to the kind of experiment: KiNativ kinome screen in Ramos cells: PIK3CD. To be noted: read-out: inhibition of PIK3CD.
The subject of another data set is mTORC1 over mTORC2. As to the kind of experiment: mTORC1/2 selectivity: potencies for inhibition of 4EBP1 T37/T46. To be noted: MDA-MB-468; p4EBP1 T37/T46 vs pAKT S473 potencies. The class given is cell-based.
Data set [7] relates to S6K T389 phosphorylation (mTORC1). As to the kind of experiment: AlphaLISA pS6K T389 in MDA-MB-468 cells. It is filed as cell-based.
For data set [8], the system named is pAKT S473. As to the kind of experiment: Immunoblot of MCF-7 cells overexpressing Myr-AKT or vector control. The class given is cell-based. To be noted: 4 hours; for effect on pAKT S473 in Myr-AKT cells: MCF-7 Myr-AKT cells, BiS-31x up to 100 nM; for effect on pAKT S473 in parental cells: MCF-7 parental cells.
Data set [9] has as its system mTOR FRB mutation (F2108L). Description: Immunoblot of parental MCF-7 and MCF-7 cells harboring mTOR F2108L. It is filed as cell-based. To be noted: MCF-7, four hours. (Immunoblotting shows a protein as a band on a membrane.)
The test system of a further data set is kinases other than mTOR. Description: KiNativ kinome screen in Ramos cells: kinases other than mTOR. Particulars: 1 µM.
For data set [10], the system named is pAKT S473. As to the kind of experiment: Immunoblot of MCF-7 and BT474 cells: pAKT S473. It is filed as cell-based. To be noted: 10 nM, by 4 hours.
For data set [11], the system named is HER3 expression and phosphorylation. As to the kind of experiment: Immunoblot of MCF-7 and BT474 cells: HER3. It is filed as cell-based. Particulars: 10 nM, by 24 hours.
Data set [12] concerns MDA-MB-468 sgGFP and sg4EBP1 cells. Description: Cell viability of MDA-MB-468 sgGFP and sg4EBP1 cells. It is filed as cell-based. To be noted: for concentration suppressing proliferation: five days.
The test system of the next data set is eIF4F complex formation. As to the kind of experiment: In vitro cap-binding affinity assay, MDA-MB-468 sgGFP and sg4EBP1 cells. The class given is cell-based. Particulars: 3 nM, 4 and 24 hours, MDA-MB-468 sgGFP cells.
Data set [13] deals with pS6K T389, pAKT S473, cyclin D1. As to the kind of experiment: Immunoblot of MDA-MB-468 and MCF-7 sgGFP and sg4EBP1 cells. It is filed as cell-based. Particulars: 4 hours.
Another data set deals with global protein synthesis. As to the kind of experiment: Puromycin incorporation in MCF-7 cells. It is filed as cell-based. Particulars: MCF-7, 4 hours.
Another data set has as its system mTORC1. To be noted: cited from earlier work.
A further data set deals with AKT S473 phosphorylation. As to the kind of experiment: Immunoblot of PC3 cells, 4 or 24 hours. The class given is cell-based.
A further data set addresses FKBP12 (Homo sapiens, UniProt P62942). Description: TR-FRET competitive binding assay for FKBP12. A general note: Time-resolved FRET reads energy transfer from a long-lived donor to a nearby acceptor.
For data set [14] the following is noted: mouse, in vivo.

Sequence of PIK3CD (O00329 whole entry): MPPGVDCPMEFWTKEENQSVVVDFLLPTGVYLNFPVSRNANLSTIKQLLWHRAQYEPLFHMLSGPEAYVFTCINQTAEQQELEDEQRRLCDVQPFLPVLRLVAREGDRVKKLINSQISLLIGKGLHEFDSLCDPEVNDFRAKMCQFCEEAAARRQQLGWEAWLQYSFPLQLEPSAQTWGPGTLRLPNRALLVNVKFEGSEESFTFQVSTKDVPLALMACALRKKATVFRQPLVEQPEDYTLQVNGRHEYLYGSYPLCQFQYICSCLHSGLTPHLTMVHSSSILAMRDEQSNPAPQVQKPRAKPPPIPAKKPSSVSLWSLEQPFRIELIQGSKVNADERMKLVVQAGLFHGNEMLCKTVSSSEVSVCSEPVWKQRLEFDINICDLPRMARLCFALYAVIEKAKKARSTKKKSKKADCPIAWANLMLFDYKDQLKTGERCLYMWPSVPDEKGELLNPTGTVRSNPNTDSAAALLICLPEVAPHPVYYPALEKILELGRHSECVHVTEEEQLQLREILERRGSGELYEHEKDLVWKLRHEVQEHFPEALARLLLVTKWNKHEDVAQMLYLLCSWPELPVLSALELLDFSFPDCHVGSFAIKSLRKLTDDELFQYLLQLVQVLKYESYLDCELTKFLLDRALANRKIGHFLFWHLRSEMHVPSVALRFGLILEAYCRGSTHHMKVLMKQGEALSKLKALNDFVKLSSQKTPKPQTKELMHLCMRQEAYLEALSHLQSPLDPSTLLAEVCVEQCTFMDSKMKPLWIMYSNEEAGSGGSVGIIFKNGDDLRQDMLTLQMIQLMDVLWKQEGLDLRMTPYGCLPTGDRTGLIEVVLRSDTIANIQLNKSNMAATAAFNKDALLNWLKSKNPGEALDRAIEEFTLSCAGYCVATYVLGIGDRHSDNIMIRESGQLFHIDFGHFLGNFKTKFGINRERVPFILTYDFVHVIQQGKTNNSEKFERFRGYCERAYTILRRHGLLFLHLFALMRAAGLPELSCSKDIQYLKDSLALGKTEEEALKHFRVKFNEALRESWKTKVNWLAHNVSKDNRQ
Sequence of PIK3CD (P27986 whole entry partner): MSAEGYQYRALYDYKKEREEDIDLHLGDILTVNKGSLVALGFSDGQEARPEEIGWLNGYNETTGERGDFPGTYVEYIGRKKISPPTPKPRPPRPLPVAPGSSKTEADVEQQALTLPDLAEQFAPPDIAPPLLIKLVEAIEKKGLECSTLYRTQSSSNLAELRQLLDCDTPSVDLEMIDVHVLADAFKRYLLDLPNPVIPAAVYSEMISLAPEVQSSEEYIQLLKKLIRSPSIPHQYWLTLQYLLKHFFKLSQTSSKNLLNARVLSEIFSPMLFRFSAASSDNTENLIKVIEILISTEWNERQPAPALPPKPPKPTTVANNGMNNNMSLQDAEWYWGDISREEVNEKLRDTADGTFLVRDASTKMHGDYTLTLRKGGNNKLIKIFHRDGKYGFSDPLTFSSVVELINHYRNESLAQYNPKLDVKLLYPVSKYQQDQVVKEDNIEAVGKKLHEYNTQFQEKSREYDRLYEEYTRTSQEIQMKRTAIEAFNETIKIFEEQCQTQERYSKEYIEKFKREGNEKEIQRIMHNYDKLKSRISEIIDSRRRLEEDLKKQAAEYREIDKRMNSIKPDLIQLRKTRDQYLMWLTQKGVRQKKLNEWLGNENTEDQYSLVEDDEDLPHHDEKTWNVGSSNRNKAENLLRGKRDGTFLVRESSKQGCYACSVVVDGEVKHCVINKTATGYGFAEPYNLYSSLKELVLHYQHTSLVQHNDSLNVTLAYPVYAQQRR
Sequence of FKBP12 (P62942 whole entry): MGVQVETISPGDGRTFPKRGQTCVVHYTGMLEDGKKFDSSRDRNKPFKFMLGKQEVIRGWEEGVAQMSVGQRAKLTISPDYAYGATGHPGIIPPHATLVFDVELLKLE

What is called inhibition is the drop in the measured response relative to a control, in per cent. As for `CC(C)n1nc(-c2ccc3oc(N)nc3c2)c2c(N)ncnc21` [MLN0128], in [1], the “effect on p4EBP1 T37/T46” value was “inhibited”. Further, the “effect on pAKT S473” value in data set [2] is listed as “inhibited”. The “impact of FKBP12 knockout on inhibitory activity” value in data set [3] was “Neither FKBP12 knockout nor addition of FK506 had an impact”. In addition, in the data set on p4EBP1 T37/T46, the “impact of addition of FK506 on inhibitory activity” value is listed as “Neither FKBP12 knockout nor addition of FK506 had an impact”. Besides, the “GI50 relative to BiS-NS and BiS-13x (less potent)” value in the data set with MCF-7 cells is listed as 10 fold. Besides, in data set [4], the “sensitivity to cell growth inhibition in 4EBP1/2 DKO MEFs compared to WT MEFs” value is “a similar pattern was observed”. The “return of glucose levels to baseline after the first glucose challenge” value in data set [5] is listed as “delayed”. The “maximum loss in body weight” value in data set [6] is “up to 15%”. The inhibition at 1 µM on PIK3CD turned out to be 69%.

As to `CC(C)n1nc(-c2cc3cc(O)ccc3[nH]2)c2c(N)ncnc21` [PP242], in data set [1], the “effect on p4EBP1 T37/T46” value was “inhibited”. Moreover, in data set [2], the “effect on pAKT S473” value is on record as “inhibited”.

With `CO[C@H]1C[C@@H]2CC[C@@H](C)[C@@](O)(O2)C(=O)C(=O)N2CCCC[C@H]2C(=O)O[C@H]([C@H](C)C[C@@H]2CC[C@@H](O)[C@H](OC)C2)C[C@@H](OC)[C@H](C)/C=C(\C)[C@@H](O)[C@@H](OC)/C(=N/OCc2cn(CCOCCOCCOCCOCCOCCOCCOCCOCCC(=O)NCCCCn3nc(-c4ccc5oc(N)nc5c4)c4c(N)ncnc43)nn2)[C@H](C)C[C@H](C)/C=C/C=C/C=C/1C` [RMC-4529], the “selectivity for mTORC1 over mTORC2” value with mTORC1 over mTORC2 was determined as 31 fold. Also, the IC50 in [1] (read-out: 4EBP1 T37/T46 IC50) is 6.37 nM. The IC50 in data set [7] (read-out: S6K IC50) came out at 0.98 nM. Moreover, in the data set with pAKT S473 [8], the “effect on pAKT S473 in Myr-AKT cells” value is “did not inhibit” and the “effect on pAKT S473 in parental cells” value is recorded as “increase”. Besides, in [9], the “reduction in potency in cells with mTOR FRB mutation (F2108L)” value was found to be 10 fold. Moreover, the “GI50 relative to BiS-NS and BiS-13x (less potent)” value in the data set with MCF-7 cells is recorded as 10 fold. Also, the “maximum loss in body weight” value in [6] stood at 5%. For the same compound, the “interactions with kinases other than mTOR” value in the data set on kinases other than mTOR is “No interactions”.

Consider `CO[C@@H]1C[C@@H]2CC[C@@H](C)[C@@](O)(O2)C(=O)C(=O)N2CCCC[C@@H]2C(=O)O[C@H]([C@H](C)C[C@H]2CC[C@H](OCCOCc3cn(CCOCCOCCOCCOCCOCCOCCOCCOCCC(=O)NCCCCn4nc(-c5ccc6oc(N)nc6c5)c5c(N)ncnc54)nn3)[C@H](OC)C2)CC(=O)[C@H](C)/C=C(\C)[C@H](O)[C@@H](OC)C(=O)[C@H](C)C[C@H](C)/C=C/C=C/C=C/1C` [RapaLink-1], for which, in the data set with mTORC1 over mTORC2, the “selectivity for mTORC1 over mTORC2” value is on record as “three- to four; also recorded: approximately four”. For the same compound, in data set [1], the “effect on p4EBP1 T37/T46” value is “equipotent”. Moreover, the “effect on pS6K T389” value in data set [7] was “equipotent”. The “effect on pAKT S473 in Myr-AKT cells” value in the data set on pAKT S473 [8] is listed as “inhibited”. Also, the “effect on pAKT S473 in parental cells” value in the data set on pAKT S473 [8] is listed as “inhibited”. Moreover, the “effect on pAKT S473” value with pAKT S473 [10] was “abolished”. Also, the “effect on HER3 expression and phosphorylation” value in [11] is “increased”. Moreover, the “sensitivity of sg4EBP1 cells compared to sgGFP cells (less sensitive)” value in data set [12] (MDA-MB-468, five days) was “three”. The concentration suppressing proliferation in data set [12] (MDA-MB-468 sg4EBP1 cells) was determined as 0.3 nM; in data set [12] (MDA-MB-468 sgGFP cells), 0.1 nM. Also, in the data set on eIF4F complex formation, the “displacement of eIF4G by 4EBP1 in the cap-binding complexes” value is reported as “significant displacement”. In addition, the “effect on pS6K T389 and pAKT S473” value in data set [13] (control (sgGFP) and sg4EBP1 cells) was “suppressed pS6K T389 and pAKT S473 effectively and equivalently”. In addition, the entries for the “effect on cyclin D1 levels” value in data set [13] (sg4EBP1 cells) and in data set [13] (sgGFP cells) were “unaffected” and “reduced”, respectively. The “effect on global protein synthesis” value in the data set with global protein synthesis is recorded as “suppressed”. In the data set with mTORC1, the “selectivity for mTORC1” value is “three- to four”.

For the compound `CO[C@H]1C[C@@H]2CC[C@@H](C)[C@@](O)(O2)C(=O)C(=O)N2CCCC[C@H]2C(=O)O[C@H]([C@H](C)C[C@@H]2CC[C@@H](O)[C@H](OC)C2)CC(=O)[C@H](C)/C=C(\C)[C@@H](O)[C@@H](OC)C(=O)[C@H](C)C[C@H](C)/C=C/C=C/C=C/1C` [Rapamycin], the “effect on pS6K T389” value in data set [7] is “inhibited”. In data set [2], the “effect on pAKT S473” value is “increased”. For the same compound, the “effect on AKT S473 phosphorylation” value with AKT S473 phosphorylation is “significant inhibition”.

With RMC-4627, the “selectivity for mTORC1 over mTORC2” value in the data set with mTORC1 over mTORC2 is listed as 13 fold. The “effect on p4EBP1 T37/T46” value in data set [1] was “equipotent”. Moreover, the “effect on pS6K T389” value in data set [7] is “equipotent”. Further, the “affinity for FKBP12 relative to rapamycin (lower)” value on FKBP12 is given as “approximately 3 fold”. Also, the “maximum loss in body weight” value in data set [14] came to 10%.

Source of the values: PMC9249104 (Nature chemical biology, 2021).
